From patent US8940798B2, “Compounds useful for treating and/or preventing disease-associated bone loss” (Centre National de al Recherche Scientifique (CNRS), priority 2011, dated 2015)

Key:
Dock5-DHR2 = target: T1, Dock5-DHR2 (Mus musculus, UniProt B2RY04); test: Yeast exchange assay screening for Dock5 inhibitors; assay type: cell-based; details: screen of 2,640 compounds at 100 μM, 1% DMSO
T1 construct: Dock5 DHR2 domain (aminoacids E1119 to L1667) was cloned into pEGFP (Clontech) or myc tagged in pRs426Met (21); expressed in transfected cells; host or cells: HEK-293T cells
Excerpt: (§1) FIGS. 5A-5H: Inhibition of bone resorption by an inhibitor of Rac1 activation by Dock5. (FIG. 5A) Principle of the yeast exchange assay used to identify inhibitors of Dock5 exchange activity. Wild type Rac1 is fused to LexA DNA binding domain (LexA) and its effector Kinectin (Kin) to GAL4 activation domain (GAD). Expression of Dock5-DHR2 activates Rac1, which binds to kinectin, leading to the expression of his3 and then yeast […] for histidine. Inhibitors of Dock5-DHR2 revert Rac1 activation. (FIG. 5B) Growth curves of yeasts expressing Rac1 and Kinectin with (open triangles) and without (dots) Dock5-DHR2, in medium complemented (plain lines) or not (dotted lines) with histidine. (FIG. 5C) Structure of N-(3,5-dichlorophenyl)benzensulfonamide (C21). (FIG. 5D) Western blots showing total and GTPbound Rac1 (upper panels) and GFP and GFP-fused Dock5-DHR2 in extracts of 293T cells treated for 1 hour with the indicated concentrations of C21 in the presence of 1% DMSO. (FIG. 5E) Western blots showing total and GTP-bound Rac1 (upper panels) and GFP and GFP-fused TrioN in extracts of 293T cells treated as in FIG. 5D. (FIG. 5F) Number of OCs (OC) after a 24-hour incubation with the indicated concentrations of C21, expressed as a % of DMSO control (0 μM C21). […] (FIG. 5G) CTx concentration in the medium of OCs on bone in the absence (O) or presence of 25 μM C21. […]

osteoclasts (OCs) = test: Bone resorption assay, CTx concentration in medium of OCs on bovine bone slices; assay type: cell-based, mouse
Excerpt: as §1, with “(FIG. 5E) Western blots showing total and GTP-bound Rac1 (upper panels) and GFP and GFP-fused TrioN in extracts of 293T cells treated as in FIG. 5D.” left out, “Well image was reconstituted and resorbed areas were measured using MetaMorph 7.0 software (Molecular Devices). […] After 2 days,” for “(FIG. 5G)”, “concentrations were measured using Crosslap (IDS Nordic Bioscience).” for “concentration in the medium of OCs on bone in the absence (O) or presence of 25 μM C21.”

T1 sequence (B2RY04 1119-1667): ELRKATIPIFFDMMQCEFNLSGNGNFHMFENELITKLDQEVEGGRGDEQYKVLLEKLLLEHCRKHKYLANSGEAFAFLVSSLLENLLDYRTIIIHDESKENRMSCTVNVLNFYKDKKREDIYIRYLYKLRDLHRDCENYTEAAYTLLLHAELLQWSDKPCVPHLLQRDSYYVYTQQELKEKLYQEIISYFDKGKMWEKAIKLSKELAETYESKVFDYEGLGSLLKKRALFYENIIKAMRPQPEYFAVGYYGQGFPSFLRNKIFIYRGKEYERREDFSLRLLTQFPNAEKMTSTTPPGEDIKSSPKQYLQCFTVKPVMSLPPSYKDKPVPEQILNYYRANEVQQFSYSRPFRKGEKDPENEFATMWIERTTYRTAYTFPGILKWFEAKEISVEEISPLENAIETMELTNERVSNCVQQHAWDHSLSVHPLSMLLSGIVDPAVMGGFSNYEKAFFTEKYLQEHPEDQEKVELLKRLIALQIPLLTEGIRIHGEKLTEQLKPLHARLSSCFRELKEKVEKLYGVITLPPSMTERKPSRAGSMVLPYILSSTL

Structure (SMILES): O=S(=O)(Nc1cc(Cl)cc(Cl)c1)c1ccccc1 [C21, N-(3,5-dichlorophenyl)benzenesulfonamide]
- Inhibition of growth of Dock5 DHR2-expressing yeasts in Histidine deprived medium without affecting growth in Histidine complemented medium (Dock5-DHR2): identified
- Bone resorption, CTx concentration in the culture medium of OCs (osteoclasts (OCs); 25 μM C21, OCs on bone): efficiently inhibits
- Bone resorption by OCs in vitro, CTx production per OC, dose response (osteoclasts (OCs); dose response experiment): efficiently inhibits bone resorption
